Active and inactive are the calls of the source. No cut-off for these calls is given here.
What was measured:
[1] = Antiinflammatory activity in mouse BMDM cells assessed as inhibition of IL1-beta production relative to control; format: functional
[2] = Antiinflammatory activity in mouse BMDM cells assessed as inhibition of TNF-alpha production relative to control; format: functional
[3] = Selectivity index, ratio of antiinflammatory activity in mouse BMDM cells assessed as inhibition of TNF-alpha production to antiinflammatory activity in mouse BMDM cells assessed as inhibition of IL1-beta production; format: functional
[4] = biological target: NACHT, LRR and PYD domains-containing protein 3 (Mus musculus) (UniProt Q8R4B8); experiment: Inhibition of NLRP3 inflammasome activation in LPS-primed immortalized mouse BMDM cells assessed as reduction in ATP-induced cleaved caspase-1 expression in supernatant at 5 to 20 uM by western blot analysis; format: cell-based; conditions: dose 5-20 µM
[5] = biological target: NACHT, LRR and PYD domains-containing protein 3 (Mus musculus) (UniProt Q8R4B8); experiment: Inhibition of NLRP3 inflammasome activation in LPS-primed mouse BMDM cells assessed as inhibition of LPS/ATP induced IL-1beta release by ELISA; format: cell-based
[6] = biological target: NACHT, LRR and PYD domains-containing protein 3 (Mus musculus) (UniProt Q8R4B8); experiment: Inhibition of NLRP3 inflammasome activation in LPS-primed immortalized mouse BMDM cells assessed as effect on ATP-induced pro-IL-1beta level in cell lysate at 5 to 20 uM by western blot analysis; format: subcellular; conditions: dose 5-20 µM
[7] = Antiinflammatory activity in mouse BMDM cells assessed as inhibition of IL1-beta production; format: functional, cell-based
[8] = biological target: NACHT, LRR and PYD domains-containing protein 3 (Mus musculus) (UniProt Q8R4B8); experiment: Inhibition of NLRP3 inflammasome activation in LPS-primed immortalized mouse BMDM cells assessed as inhibition of LPS/ATP induced IL-1beta release by ELISA; format: cell-based
[9] = biological target: NACHT, LRR and PYD domains-containing protein 3 (Mus musculus) (UniProt Q8R4B8); experiment: Inhibition of NLRP3 inflammasome activation in LPS-primed immortalized mouse BMDM cells assessed as reduction in ATP-induced mature IL-1beta expression in supernatant at 5 to 20 uM by western blot analysis; format: cell-based; conditions: dose 5-20 µM
[10] = Selectivity index, ratio of IC50 for antiinflammatory activity in mouse BMDM cells assessed as inhibition of TNF-alpha production to IC50 for antiinflammatory activity in mouse BMDM cells assessed as inhibition of IL1-beta production; format: functional
[11] = Antiinflammatory activity in mouse BMDM cells assessed as inhibition of TNF-alpha production; format: functional, cell-based
[12] = biological target: NACHT, LRR and PYD domains-containing protein 3 (Mus musculus) (UniProt Q8R4B8); experiment: Inhibition of NLRP3 inflammasome activation in LPS-primed immortalized mouse BMDM cells assessed as effect on ATP-induced NLRP3 level in cell lysate at 5 to 20 uM by western blot analysis; format: subcellular; conditions: dose 5-20 µM

NACHT, LRR and PYD domains-containing protein 3 (Mus musculus), sequence (Q8R4B8 whole entry, the tested form may be a part): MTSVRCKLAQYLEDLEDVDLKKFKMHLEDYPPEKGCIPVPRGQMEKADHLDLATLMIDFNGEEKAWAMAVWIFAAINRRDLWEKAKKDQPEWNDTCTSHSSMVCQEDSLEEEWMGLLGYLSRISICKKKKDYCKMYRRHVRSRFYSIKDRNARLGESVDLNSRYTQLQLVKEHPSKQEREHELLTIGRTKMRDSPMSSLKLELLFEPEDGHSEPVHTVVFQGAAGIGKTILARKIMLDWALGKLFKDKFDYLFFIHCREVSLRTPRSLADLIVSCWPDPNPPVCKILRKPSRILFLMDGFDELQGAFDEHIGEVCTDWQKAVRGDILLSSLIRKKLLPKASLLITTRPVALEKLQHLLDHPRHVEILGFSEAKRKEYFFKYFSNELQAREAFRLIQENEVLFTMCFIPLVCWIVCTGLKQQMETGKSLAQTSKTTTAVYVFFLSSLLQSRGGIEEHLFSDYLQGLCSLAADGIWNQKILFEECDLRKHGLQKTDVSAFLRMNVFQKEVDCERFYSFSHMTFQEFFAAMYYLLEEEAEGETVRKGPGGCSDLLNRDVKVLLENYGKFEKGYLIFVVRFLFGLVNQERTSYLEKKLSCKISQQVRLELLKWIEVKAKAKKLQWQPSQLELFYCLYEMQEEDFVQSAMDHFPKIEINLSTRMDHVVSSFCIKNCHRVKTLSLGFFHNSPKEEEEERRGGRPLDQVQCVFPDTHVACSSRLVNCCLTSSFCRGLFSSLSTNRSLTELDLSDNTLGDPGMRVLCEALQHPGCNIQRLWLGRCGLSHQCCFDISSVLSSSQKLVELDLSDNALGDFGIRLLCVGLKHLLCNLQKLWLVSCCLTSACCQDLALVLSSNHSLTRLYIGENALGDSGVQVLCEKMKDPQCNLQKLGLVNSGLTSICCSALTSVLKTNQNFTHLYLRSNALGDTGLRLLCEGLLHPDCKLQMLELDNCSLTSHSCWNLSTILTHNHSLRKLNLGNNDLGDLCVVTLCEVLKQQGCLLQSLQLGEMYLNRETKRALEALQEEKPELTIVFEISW

SMILES | inhibition (INH) [1] [%] | inhibition (INH) [2] [%] | Selectivity Index [3] | also measured
Nc1c(C(=O)N2CCCCC2)nnn1Cc1cc(Cl)c(C(=O)c2ccc(Cl)cc2)c(Cl)c1 | 27.12 | 52.43 | 0.51 | –
NC(=O)c1nnn(Cc2cc(Cl)c(C(=O)c3ccc(Cl)cc3)c(Cl)c2)c1NC(=O)C1CC1 | 57.13 | 73.51 | 0.78 | –
CCC(=O)Nc1c(C(N)=O)nnn1Cc1cc(Cl)c(C(=O)c2ccc(Cl)cc2)c(Cl)c1 | 47.39 | 14.25 | 3.33 | –
NC(=O)c1nnn(Cc2ccc3ccccc3c2)c1N | -26.65 | 2.5 | – | –
CC(=O)c1nnn(Cc2cc(Cl)c(C(=O)c3ccc(Cl)cc3)c(Cl)c2)c1N | 39.49 | 49.4 | 0.8 | –
COC(=O)c1nnn(Cc2cc(Cl)c(C(=O)c3ccc(Cl)cc3)c(Cl)c2)c1N | 18.59 | -6.83 | 2.72 | –
CC(C)C(=O)N(C(=O)C(C)C)c1c(C(N)=O)nnn1Cc1cc(Cl)c(C(=O)c2ccc(Cl)cc2)c(Cl)c1 | -22.3 | 20.24 | – | –
CNc1c(C(N)=O)nnn1Cc1cc(Cl)c(C(=O)c2ccc(Cl)cc2)c(Cl)c1 | 57.66 | 15.53 | 3.71 | inhibition [4]: Active; inhibition [5]: Dose-Dependent Effect; inhibition [6]: inactive; IC50 [7]: 5.49 µM; inhibition [8]: Dose-Dependent Effect; inhibition [9]: Active; Ratio IC50 [10]: >18.22; IC50 [11]: > 100 µM; inhibition [12]: inactive
NC(=O)c1nnn(Cc2cc(Cl)c(C(=O)c3ccc(Cl)cc3)c(Cl)c2)c1N [CARBOXYAMIDOTRIAZOLE] | 71.94 | 87.54 | 0.82 | –
NC(=O)c1nnn(Cc2cc(Cl)c(C(=O)c3ccc(Cl)cc3)c(Cl)c2)c1NC(=O)CCBr | 87.06 | 81.52 | 1.07 | IC50 [7]: 4.97 µM; Ratio IC50 [10]: 1.96; IC50 [11]: 9.77 µM
Nc1c(C(=O)NCCO)nnn1Cc1cc(Cl)c(C(=O)c2ccc(Cl)cc2)c(Cl)c1 | 72.28 | 15.01 | 4.85 | –
NC(=O)c1nnn(Cc2cc(Cl)c(C(=O)c3ccc(Cl)cc3)c(Cl)c2)c1NC(=O)c1ccco1 | 56.91 | 21.44 | 2.65 | –
N#Cc1nnn(Cc2cc(Cl)c(C(=O)c3ccc(Cl)cc3)c(Cl)c2)c1N | 64.01 | 82.32 | 0.78 | –
CCC(=O)N(C(=O)CC)c1c(C(N)=O)nnn1Cc1cc(Cl)c(C(=O)c2ccc(Cl)cc2)c(Cl)c1 | -23.37 | 11.95 | – | –
CN(C)c1c(C(N)=O)nnn1Cc1cc(Cl)c(C(=O)c2ccc(Cl)cc2)c(Cl)c1 | 39.86 | 45.89 | 0.87 | –
CCC(CC)C(=O)N(C(=O)C(CC)CC)c1c(C(N)=O)nnn1Cc1cc(Cl)c(C(=O)c2ccc(Cl)cc2)c(Cl)c1 | -22.74 | 12.68 | – | –
Nc1c(C(=O)NCCOCCOCCO)nnn1Cc1cc(Cl)c(C(=O)c2ccc(Cl)cc2)c(Cl)c1 | 42.65 | 8.04 | 5.3 | –
NC(=O)c1nnn(Cc2ccc(C(=O)c3ccccc3)cc2)c1N | 1.36 | -16.37 | – | –
Nc1c(C(=O)NCCOCCO)nnn1Cc1cc(Cl)c(C(=O)c2ccc(Cl)cc2)c(Cl)c1 | 62 | 5.3 | 1.12 | –

SMILES | inhibition (INH) [1] [%] | inhibition (INH) [2] [%] | Selectivity Index [3] | also measured
CCNC(=O)c1nnn(Cc2cc(Cl)c(C(=O)c3ccc(Cl)cc3)c(Cl)c2)c1N | 53.9 | 75.89 | 0.71 | –
CCCC(=O)Nc1c(C(N)=O)nnn1Cc1cc(Cl)c(C(=O)c2ccc(Cl)cc2)c(Cl)c1 | 74.89 | 47.9 | 1.56 | IC50 [7]: 11.9 µM; Ratio IC50 [10]: 2.25; IC50 [11]: 26.8 µM
NC(=O)c1nnn(Cc2ccc(-c3ccccc3)cc2)c1N | -18.17 | 0.39 | – | –
NC(=O)c1nnn(Cc2ccccc2)c1N | -6.29 | -12.61 | – | –
Nc1c(C(=O)NCc2ccccc2)nnn1Cc1cc(Cl)c(C(=O)c2ccc(Cl)cc2)c(Cl)c1 | 21.22 | 7.59 | 2.8 | –
CCC(CC)C(=O)Nc1c(C(N)=O)nnn1Cc1cc(Cl)c(C(=O)c2ccc(Cl)cc2)c(Cl)c1 | 77.01 | 5.73 | 13.43 | IC50 [7]: 8.08 µM; Ratio IC50 [10]: >12.37; IC50 [11]: > 100 µM
CN1CCN(C(=O)c2nnn(Cc3cc(Cl)c(C(=O)c4ccc(Cl)cc4)c(Cl)c3)c2N)CC1 | 36.62 | 97 | 0.38 | –
NC(=O)c1nnn(Cc2cc(Cl)c(C(=O)c3ccc(Cl)cc3)c(Cl)c2)c1NC(=O)CCCBr | 53.09 | -2.72 | 19.51 | –
CC(C)C(=O)Nc1c(C(N)=O)nnn1Cc1cc(Cl)c(C(=O)c2ccc(Cl)cc2)c(Cl)c1 | 30.69 | 7.91 | 3.88 | –
CC(C)(C)C(=O)Nc1c(C(N)=O)nnn1Cc1cc(Cl)c(C(=O)c2ccc(Cl)cc2)c(Cl)c1 | 68.75 | 92.89 | 0.74 | –
Nc1c(C(=O)N2CCCC2)nnn1Cc1cc(Cl)c(C(=O)c2ccc(Cl)cc2)c(Cl)c1 | 33.52 | 51.44 | 0.65 | –
CC(C)(C)C(=O)N(C(=O)C(C)(C)C)c1c(C(N)=O)nnn1Cc1cc(Cl)c(C(=O)c2ccc(Cl)cc2)c(Cl)c1 | -8.41 | 17.92 | – | –
NC(=O)c1cn(Cc2cc(Cl)c(C(=O)c3ccc(Cl)cc3)c(Cl)c2)nn1 | 50.67 | 30.18 | 1.68 | –
CN(C)C(=O)c1nnn(Cc2cc(Cl)c(C(=O)c3ccc(Cl)cc3)c(Cl)c2)c1N | 43.42 | 57.9 | 0.75 | –
NC(=O)c1nnn(Cc2cc(Cl)c(C(=O)c3ccc(Cl)cc3)c(Cl)c2)c1N(C(=O)C1CC1)C(=O)C1CC1 | -36.41 | 48.7 | – | –
CCNc1c(C(N)=O)nnn1Cc1cc(Cl)c(C(=O)c2ccc(Cl)cc2)c(Cl)c1 | 57.89 | 57.8 | 1 | –
CNC(=O)c1nnn(Cc2cc(Cl)c(C(=O)c3ccc(Cl)cc3)c(Cl)c2)c1N | 58.34 | 46.35 | 1.26 | –
NC(=O)c1nnn(Cc2cc(Cl)c(C(=O)c3ccc(Cl)cc3)c(Cl)c2)c1NC(=O)c1ccccc1 | 46.29 | 86.58 | 0.53 | –
